Test results published in patent US6310247A, “7-aryl-6(Z)-heptatrienoic acid retinamides” (Hoffmann-LA Roche Inc., priority 1999, dated 2001).
Where two headings read alike, the source gives them in different places.

Experiments:
Type in all cases: cell-based
[1] = tested on: MDA 231 cells; test: Cell growth inhibition: MTT assay, MDA 231 (ER- breast carcinoma); settings: Homo sapiens, MDA-MB-231, read-out: % inhibition of cell growth compared to no drug control
Procedure: ER- breast carcinoma, human (MDA-231) obtained from ATCC (HTB 22), were grown in Eagle's MEM medium supplemented with non-essential amino acids, sodium pyruvate, and Earle's BSS, 10% FBS, and 13 ng/mL gentamicin. Cells were incubated at 37° C., 4.5% CO2 and 95.5% humidified air.
(§1) 1. Cell growth inhibition: MTT Assay
(§2) The compounds of formula 1 were tested for ability to inhibit cell growth using the standard MTT assay, a tetrazolium-based assay which measures the viability of cells in culture. Cells were harvested upon reaching 70-80% confluency and pelleted. The cells were then resuspended in medium in which FBS was replaced with Hyclone's Charcoal/Dextran stripped FBS, and seeded (2 mL/well) into 6-well plates (Corning) at a density allowing for linear growth over a four day assay period. Compounds of formula 1 (10 mM stock in dimethylsulfoxide (DMSO)) were added 18-24 hours post-seeding. Compound dilutions were prepared in the appropriate growth media and added to the cells for final concentrations of 10, 3.3 and 1 μM in 0.1% DMSO. At 24, 48 and 72 hr. time points, MTT (3-[4,5-dimethylthiazol-2-yl-2,5-diphenyltetrazolium bromide) stock solution (5mg/mL in 1 PBS) was added to the cells plates (625 μL/well) which were then incubated for 2.5 hours. Liquid was aspirated from the wells and 1 mL/well of 95% ethanol was added to solubilize the formazan reaction product. The plates were shaken (Bellco Mini-Orbital Shaker) for 15 minutes. The solubilized formazan was then transferred (50 μls) into a 96-well plate and the optical densities (OD) were measured (Bio-Tek Microplate Reader) at 570 nm and reference wavelength of 660 nm. Percentage of inhibition of cell growth was calculated according to the following formula: [formula]

[2] = tested on: MDA 435 cells; test: Cell growth inhibition: MTT assay, MDA 435 (ER- breast carcinoma); settings: Homo sapiens, MDA435, read-out: % inhibition of cell growth compared to no drug control
Procedure: ER- breast carcinoma, human (MDA-435) obtained from Dr. Janet Price, MDA Cancer Center, Houston, Tex., were grown in Gibco's RPMI 1640 media supplemented with sodium pyruvate, 10% FBS and 13 ng/mL gentamicin. Cells were incubated at 37° C., 4.5% CO2 and 95.5% humidified air.
as §1, §2

[3] = tested on: ZR-75-1 cells; test: Cell growth inhibition: MTT assay, ZR-75-1 (ER+ breast carcinoma); settings: Homo sapiens, read-out: % inhibition of cell growth compared to no drug control
Procedure: ER+ breast carcinoma, human (ZR-75-1) obtained from ATCC (CRL 1500), were grown in Gibco's RPMI 1640 media supplemented with sodium pyruvate, 10% FBS and 13 ng/mL gentamicin. Cells were incubated at 37° C., 4.5% CO2 and 95.5% humidified air.
as §1, §2

SMILES	inhibition at 1 µM ([1]; 24 hours) [%]	inhibition at 3.3 µM ([1]; 24 hours) [%]	inhibition at 10 µM ([1]; 24 hours) [%]	inhibition at 1 µM ([1]; 48 hours) [%]	inhibition at 3.3 µM ([1]; 48 hours) [%]	inhibition at 10 µM ([1]; 48 hours) [%]	inhibition at 1 µM ([1]; 72 hours) [%]	inhibition at 3.3 µM ([1]; 72 hours) [%]	inhibition at 10 µM ([1]; 72 hours) [%]	inhibition at 1 µM ([2]; 24 hours) [%]	inhibition at 3.3 µM ([2]; 24 hours) [%]	inhibition at 10 µM ([2]; 24 hours) [%]	inhibition at 1 µM ([2]; 48 hours) [%]	inhibition at 3.3 µM ([2]; 48 hours) [%]	inhibition at 10 µM ([2]; 48 hours) [%]	inhibition at 1 µM ([2]; 72 hours) [%]	inhibition at 3.3 µM ([2]; 72 hours) [%]	inhibition at 10 µM ([2]; 72 hours) [%]	further results
CC(/C=C/C=C\c1cc(C(F)(F)F)cc(C(F)(F)F)c1)=C\C(=O)Nc1ccc(O)cc1 [N-(4-hydroxyphenyl)-(2E,4E,6Z)-7-[3,5-bis(trifluoromethyl)phenyl]-3-methyl-2,4,6-heptatrienamide]	22	33	37	42	51	50	50	68	73	19	81	91	45	93	99	73	83	100	–
C/C(=C/C=C/C(C)=C/C(=O)Nc1ccc(O)cc1)c1ccccc1 [N-(4-hydroxyphenyl)-(2E,4E,6Z)-7-phenyl-3,7-dimethyl-2,4,6-heptatrienamide]	45	57	58	67	80	81	76	87	88	3	3	2	39	40	42	41	51	68	–
COc1cc(OC)cc(\C(C)=C/C=C/C(C)=C/C(=O)Nc2ccc(O)cc2)c1 [N-(4-hydroxyphenyl)-(2E,4E,6Z)-7-(3,5-dimethoxyphenyl)-3,7-dimethyl-2,4,6-heptatrienamide]	18	21	30	30	52	65	25	61	64	21	36	25	64	61	61	86	87	87	–
C/C(=C/C=C/C(C)=C/C(=O)Nc1ccc(O)cc1)c1cc(C)cc(C)c1 [N-(4-hydroxyphenyl)-(2E,4E,6Z)-7-(3,5-dimethylphenyl)-3,7-dimethyl-2,4,6-heptatrienamide]	50	51	58	60	70	72	81	82	85	56	53	53	95	92	98	95	94	91	–
C/C(=C/C=C/C(C)=C/C(=O)Nc1ccc(O)cc1)c1cc(Br)cc(Br)c1 [N-(4-hydroxyphenyl)-(2E,4E,6Z)-7-(3,5-dibromophenyl)-3,7-dimethyl-2,4,6-heptatrienamide]	6	65	65	72	81	82	78	86	87	27	28	37	70	66	70	86	88	87	–
CC(/C=C/C(C)=C/C(=O)Nc1ccc(O)cc1)=C(\C)c1cc(C(F)(F)F)cc(C(F)(F)F)c1 [N-(4-hydroxyphenyl)-(2E,4E,6Z)-7-[3,5-bis(trifluoromethyl)phenyl]-3,6,7-trimethyl-2,4,6-heptatrienamide]	0	0	40	0	0	57	38	48	76	3	67	68	3	95	96	4	98	99	inhibition at 1 µM ([3]; 48 hours): 3%; inhibition at 3.3 µM ([3]; 48 hours): 0%; inhibition at 10 µM ([3]; 48 hours): 60%; inhibition at 1 µM ([3]; 72 hours): 16%; inhibition at 3.3 µM ([3]; 72 hours): 10%; inhibition at 10 µM ([3]; 72 hours): 80%
